In patent publication US7638639B2, “Substituted pyrrolidine and related compounds” (Theravance, Inc., priority 2003, dated 2009):
Like-named read-outs stand apart in the source and are kept apart here.

Assays:
[1] = target: T1, hM3 muscarinic receptor subtype (Homo sapiens, UniProt P20309); assay: Radioligand binding assay ([3H]-NMS displacement), hM3; conditions: for Δ hM3: change in binding affinity relative to compound of the invention: ratio of hM3 Ki values
T1 construct: expressed in transfected cells
T1 sequence (P20309 whole entry): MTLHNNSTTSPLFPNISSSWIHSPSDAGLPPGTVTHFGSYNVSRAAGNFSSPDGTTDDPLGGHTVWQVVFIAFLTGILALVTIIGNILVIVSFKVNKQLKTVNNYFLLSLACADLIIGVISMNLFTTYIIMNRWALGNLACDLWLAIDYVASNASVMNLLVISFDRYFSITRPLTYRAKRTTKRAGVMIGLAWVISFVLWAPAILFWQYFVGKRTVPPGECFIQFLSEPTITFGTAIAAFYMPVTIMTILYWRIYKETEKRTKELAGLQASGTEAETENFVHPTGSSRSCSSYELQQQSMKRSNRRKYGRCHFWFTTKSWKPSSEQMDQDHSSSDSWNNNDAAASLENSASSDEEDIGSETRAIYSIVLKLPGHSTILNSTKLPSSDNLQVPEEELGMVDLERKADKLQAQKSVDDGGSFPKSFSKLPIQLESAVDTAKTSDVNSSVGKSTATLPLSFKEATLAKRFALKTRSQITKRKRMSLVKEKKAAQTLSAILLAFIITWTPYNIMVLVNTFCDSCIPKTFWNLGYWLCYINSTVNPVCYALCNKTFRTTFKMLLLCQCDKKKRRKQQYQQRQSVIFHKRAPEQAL
Method: (§1) A. Membrane Preparation from Cells Expressing hM1, hM2, hM3 and hM4 Muscarinic Receptor Subtypes
(§2) CHO (Chinese hamster ovary) cell lines stably expressing cloned human hM1, hM2, hM3 and hM4 muscarinic receptor subtypes, respectively, were grown to near confluency in medium consisting of HAM's F-12 supplemented with 10% FBS (Fetal Bovine Serum) and 250 μg/mL Geneticin. The cells were grown in a 5% CO2, 37° C. incubator and lifted with 2 mm EDTA in dPBS. Cells were collected by 5 minute centrifugation at 650×g, and cell pellets were either stored frozen at −80° C. or membranes were prepared immediately. For membrane preparation, cell pellets were resuspended in lysis buffer and homogenized with a Polytron PT-2100 tissue disrupter (Kinematica AG; 20 seconds×2 bursts). Crude membranes were centrifuged at 40,000×g for 15 minutes at 4° C. The membrane pellet was then resuspended with resuspension buffer and homogenized again with the Polytron tissue disrupter. The protein concentration of the membrane suspension was determined by the method described in Lowry, O. et al., 1951, […]: 193, 265. All membranes were stored frozen in aliquots at −80° C. or used immediately. Aliquots of prepared hM5 receptor membranes were purchased directly from Perkin Elmer and stored at −80° C. until use.
(§3) B. Radioligand Binding Assay on Muscarinic Receptor Subtypes hM1, hM2, hM3, hM4 and hM5
(§4) Radioligand binding assays were performed in 96-well microtiter plates in a total assay volume of 100 μL. CHO cell membranes stably expressing either the hM1, hM2, hM3, hM4 or hM5 muscarinic subtype were diluted in assay buffer to the following specific target protein concentrations (μg/well): 10 μg for hM1, 10-15 μg for hM2, 10-20 μg for hM3, 10-20 μg for hM4, and 10-12 μg for hM5. The membranes were briefly homogenized using a Polytron tissue disruptor (10 seconds) prior to assay plate addition. Saturation binding studies for determining KD values of the radioligand were performed using L-[N-methyl-3H]scopolamine methyl chloride ([^3H]-NMS) (TRK666, 84.0 Ci/mmol, Amersham Pharmacia Biotech, Buckinghamshire, England) at concentrations ranging from 0.001 nM to 20 nM. Displacement assays for determination of Ki values of test compounds were performed with [^3H]-NMS at 1 nM and eleven different test compound concentrations. The test compounds were initially dissolved to a concentration of 400 μM in dilution buffer and then serially diluted 5× with dilution buffer to final concentrations ranging from […] to […]. The addition order and volumes to the assay plates were as follows: 25 μL radioligand, 25 μL diluted test compound, and 50 μL membranes. Assay plates were incubated for 60 minutes at 37° C. Binding reactions were terminated by rapid filtration over GF/B glass fiber filter plates (PerkinElmer Inc., Wellesley, Mass.) pre-treated in 1% BSA. Filter plates were rinsed three times with wash buffer (10 mm HEPES) to remove unbound radioactivity. Plates were then air dried, and 50 μL Microscint-20 liquid scintillation fluid (PerkinElmer Inc., Wellesley, Mass.) was added to each well. The plates were then counted in a PerkinElmer Topcount liquid scintillation counter (PerkinElmer Inc., Wellesley, Mass.). Binding data were analyzed by nonlinear regression analysis with the GraphPad Prism Software package (GraphPad Software, Inc., San Diego, Calif.) using the one-site competition model. Ki values for test compounds were calculated from observed IC50 values and the KD value of the radioligand using the Cheng-Prusoff equation (Cheng Y; Prusoff W H. (1973) Biochemical Pharmacology, 22(23):3099-108). Ki values were converted to pKi values to determine the geometric mean and 95% confidence intervals. These summary statistics were then converted back to Ki values for data reporting.

[2] = target: T2, hM2 muscarinic receptor subtype (Homo sapiens, UniProt P08172); assay: Radioligand binding assay ([3H]-NMS displacement), hM2; conditions: for Ki: CHO cell membranes, [3H]-NMS 1 nM, read-out: hM2 binding affinity (Ki); for Δ hM2: change in binding affinity relative to compound of the invention: ratio of hM2 Ki values
T2 construct: expressed in transfected cells
T2 sequence (P08172 1-466): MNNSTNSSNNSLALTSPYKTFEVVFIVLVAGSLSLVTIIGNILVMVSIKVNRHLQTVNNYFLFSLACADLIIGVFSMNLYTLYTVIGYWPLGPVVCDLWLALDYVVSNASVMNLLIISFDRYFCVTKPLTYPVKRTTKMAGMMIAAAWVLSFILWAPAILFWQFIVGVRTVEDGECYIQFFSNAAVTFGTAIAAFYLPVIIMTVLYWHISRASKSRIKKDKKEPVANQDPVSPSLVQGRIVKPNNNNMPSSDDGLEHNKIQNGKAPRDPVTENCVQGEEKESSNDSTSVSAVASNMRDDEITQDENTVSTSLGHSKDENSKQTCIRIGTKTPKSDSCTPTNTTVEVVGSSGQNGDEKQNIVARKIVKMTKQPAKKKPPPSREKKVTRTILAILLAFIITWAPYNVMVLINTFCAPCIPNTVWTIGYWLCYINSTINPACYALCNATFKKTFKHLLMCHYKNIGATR
Method: as §1, §2, §3, §4

[3] = radioligand displacement, read-out: Ki value for hM3
[4] = CHO cell membranes, [3H]-NMS 1 nM, read-out: hM3 binding affinity (Ki)

Row | Ki [1, 3] [nM] | Ki [2] [nM] | Δ hM2: change in binding affinity relative to compound of the invention [2] | Ki [1, 4] [nM] | Δ hM3: change in binding affinity relative to compound of the invention [1] | SMILES
1 | < 50 | – | – | – | – | NC(=O)C(c1ccccc1)(c1ccccc1)[C@H]1CCN(CCCCCCCCNCc2ccccc2)C1 [Example 39, 2-[(R)-1-(8-Benzylaminooctyl)pyrrolidin-3-yl]-2,2-diphenylacetamide]
2 | – | 13 | ×6.3 | 5.1 | ×14 | NC(=O)C(c1ccccc1)(c1ccccc1)[C@@H]1CCN(CCCCCCCCNCCO)C1 [Example 8, 2-{(S)-1-[8-(2-Hydroxyethyl)aminooctyl]pyrrolidin-3-yl}-2,2-diphenylacetamide]
3 | < 50 | – | – | – | – | NC(=O)C(c1ccccc1)(c1ccccc1)[C@@H]1CCN(CCCCCCCCCNCc2ccccc2)C1 [Example 26, 2-[(S)-1-(9-Benzylaminononyl)pyrrolidin-3-yl]-2,2-diphenylacetamide]
4 | – | 18 | ×39 | 2.5 | ×52 | CN(C)CCCCCCCCN1CC[C@@H](C(C(N)=O)(c2ccccc2)c2ccccc2)C1 [Comp. Ex. A, 2-[(S)-1-(8-Dimethylaminooctyl)pyrrolidin-3-yl]-2,2-diphenylacetamide, reference compound]
5 | – | 150 | – | 50 | – | NCCCCCCCCN1CC[C@@H](C(C(N)=O)(c2ccccc2)c2ccccc2)C1 [Comp. Ex. D, 2-[(S)-1-(8-Aminooctyl)pyrrolidin-3-yl]-2,2-diphenylacetamide, reference compound]
6 | < 50 | – | – | – | – | CNCCCCCCCCN1CC[C@H](C(C(N)=O)(c2ccccc2)c2ccccc2)C1 [Example 27, 2-[(R)-1-(8-Methylaminooctyl)pyrrolidin-3-yl]-2,2-diphenylacetamide]
7 | – | 83 | – | 73 | – | CC(CCCCCCCN1CC[C@@H](C(C(N)=O)(c2ccccc2)c2ccccc2)C1)N(C)CCO (stereo partly drawn) [Comp. Ex. C, 2-{(S)-1-[8-N-(2-Hydroxyethyl)-N-methylaminononyl]pyrrolidin-3-yl}-2,2-diphenylacetamide, reference compound]
8 | < 50 | 1.7 | ×70 | 0.66 | ×37 | CNCCCCCCCCCN1CC[C@@H](C(C(N)=O)(c2ccccc2)c2ccccc2)C1 [Example 14, 2-[(S)-1-(9-Methylaminnonyl)pyrrolidin-3-yl]-2,2-diphenylacetamide]
9 | – | 120 | – | 25 | – | CN(C)CCCCCCCCCN1CC[C@@H](C(C(N)=O)(c2ccccc2)c2ccccc2)C1 [Comp. Ex. B, 2-[(S)-1-(9-Dimethylaminononyl)pyrrolidin-3-yl]-2,2-diphenylacetamide, reference compound]
